Assay results: US20240336601A1 (Chulalongkorn University, priority 2020, published 2024)

Legend:
[1] = molecular target: interaction between PD-1 and PD-L1 (Homo sapiens, UniProt Q9NZQ7); assay: PD-1/PD-L1 protein-protein interaction assay (ALPHA); format: binding; settings: 2 nM His-tagged human PD-L1, 0.6 nM PD-1-Fc, AlphaScreen
Description: PD-1′PD-L1 Protein-Protein Interaction Assay
Amplified Luminescent Proximity Homogeneous Assay (ALPHA) platform was used to evaluate the ability of the compounds to block the interaction between PD-1 and PD-L1. The assays were performed in half volume white 96-well plate in a final volume of 40 μl. Compounds at various concentrations were preincubated with 2 nM His tagged recombinant human PD-L1 protein and 0.6 nM recombinant PD-1 protein with Fc-tag (both reagents were purchased from AcroBiosystems) for 40 minutes. After the preincubation, 20 μg/mL of Alphascreen Ni chelate donor beads (PerkinElmer, USA) and Protein A acceptor beads (PerkinElmer, USA) were added into the well and incubated under reduced light at 25° C. for 120 minutes. The signal was measured with the EnSight Multimode Plate Reader. IC50 values were calculated from the four-parameter logistic curve fit.

PD-1/PD-L1 interaction = molecular target: T1, PD-1/PD-L1 interaction (Homo sapiens, UniProt Q9NZQ7); assay: PD-1/PD-L1 blockage cell-based bioassay (Jurkat NFAT luciferase / CHO-PDL1 co-culture); settings: Jurkat NFAT cells co-cultured with CHO-PDL1 cells, 6 h, luminescence
T1 construct: expressed in transfected cells
T1 sequence (Q9NZQ7 19-290): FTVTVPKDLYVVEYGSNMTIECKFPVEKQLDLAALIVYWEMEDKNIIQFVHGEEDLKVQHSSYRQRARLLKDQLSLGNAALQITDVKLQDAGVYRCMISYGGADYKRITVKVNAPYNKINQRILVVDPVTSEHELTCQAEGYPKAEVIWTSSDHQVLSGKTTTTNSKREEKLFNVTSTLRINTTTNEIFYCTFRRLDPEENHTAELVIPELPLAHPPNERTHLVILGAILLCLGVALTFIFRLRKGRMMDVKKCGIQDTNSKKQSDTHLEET
Description: PD-1/PD-L1 Blockage Cell-Based Bioassay
Jurkat T cells expressing human PD-1 and luciferase gene reporter driven by TCR-mediated NFAT response element (Jurkat NFAT) were co-cultured with CHO-kl cells expressing human PD-L1 and surface-bound TCR activator (CHO-PDL1). […] CHO-PDL1 cells (20,000 cells/well) were seeded overnight. Compounds were added on CHO-PDL1 and incubated for 2 h at 37° C. Jurkat NFAT cells (20,000 cells/well) were diluted in RPMI assay medium (RPMI1640 with 1% FBS) and added into each well. After co-incubation for 6 h at 37° C., luminescence was determined by adding Bio-Glo™ Luciferase reagent (Promega) and measured with a luminescence plate reader. EC50 values were calculated from the four-parameter concentration-response curves.

Chain of interaction between PD-1 and PD-L1 (Q9NZQ7 19-238 limits assumed): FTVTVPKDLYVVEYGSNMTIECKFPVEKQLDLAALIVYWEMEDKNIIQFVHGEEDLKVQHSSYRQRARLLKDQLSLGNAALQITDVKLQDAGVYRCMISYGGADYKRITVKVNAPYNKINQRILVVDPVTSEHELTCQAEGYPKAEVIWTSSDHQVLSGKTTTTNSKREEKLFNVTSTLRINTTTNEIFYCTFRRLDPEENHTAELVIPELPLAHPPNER

Compound: COC(=O)[C@@H](CO)NCc1c(OC)cc(-n2ncc3c(-c4cccc(-c5ccc(CNC[C@@H]6CCC(=O)N6)c(OC)n5)c4Cl)cccc32)cc1OC [Example 134, methyl (4-(4-(2-chloro-3-(6-methoxy-5-(((((S)-5-oxopyrrolidin-2-yl)methyl)amino)methyl)pyridin-2-yl)phenyl)-1H-indazol-1-yl)-2,6-dimethoxybenzyl)-D-serinate]
- IC50 [1]: < 1 nM
- IC50 (PD-1/PD-L1 interaction): < 200 nM

Compound: COc1cc(-n2ccc3c(-c4ccc5c(c4)OCCO5)cccc32)cc(OC)c1CNC(C)(CO)C(=O)O (centres unmarked) [Example 1, 2-((4-(4-(2,3-dihydrobenzo[b][1,4]dioxin-6-yl)-1H-indol-1-yl)-2,6-dimethoxybenzyl)amino)-3-hydroxy-2-methylpropanoic acid]
- IC50 [1]: 10 to 100 nM
- IC50 (PD-1/PD-L1 interaction): > 2000 nM

Compound: COc1cc(-n2ncc3c(-c4cccc(-c5ccc(CN6CC7(CNC(=O)C7)C6)c(OC)n5)c4Cl)cccc32)cc(OC)c1CNCC(C)(C)C(N)=O [Example 107, 3-((4-(4-(2-chloro-3-(6-methoxy-5-((7-oxo-2,6-diazaspiro[3.4]octan-2-yl)methyl)pyridin-2-yl)phenyl)-1H-indazol-1-yl)-2,6-dimethoxybenzyl)amino)-2,2-dimethylpropanamide]
- IC50 [1]: < 1 nM
- IC50 (PD-1/PD-L1 interaction): < 200 nM

Compound: COc1cc(-n2ncc3c(-c4cccc(-c5ccc(CN6CC7(CNC(=O)C7)C6)c(OC)n5)c4Cl)cccc32)cc(OC)c1CN[C@H]1C[C@@H](O)C1 [Example 97, 2-((6-(2-chloro-3-(l-(4-(((cis-3-hydroxycyclobutyl)amino)methyl)-3,5-dimethoxyphenyl)-1H-indazol-4-yl)phenyl)-2-methoxypyridin-3-yl)methyl)-2,6-diazaspiro[3.4]octan-7-one]
- IC50 [1]: < 1 nM
- IC50 (PD-1/PD-L1 interaction): < 200 nM

Compound: COc1cc(-n2ncc3c(-c4cccc(-c5ccc(CNC[C@@H]6CCC(=O)N6)c(OC)n5)c4Cl)cccc32)cc(OC)c1CN1CC(C)(C(=O)NC2CC2)C1 [Example 88, (S)-1-(4-(4-(2-chloro-3-(6-methoxy-5-((((5-oxopyrrolidin-2-yl)methyl)amino)methyl)pyridin-2-yl)phenyl)-1H-indazol-1-yl)-2,6-dimethoxybenzyl)-N-cyclopropyl-3-methylazetidine-3-carboxamide]
- IC50 [1]: 1 to 10 nM
- IC50 (PD-1/PD-L1 interaction): 201 to 2000 nM

Compound: COc1cc(-n2ccc3c(-c4cccc(-c5ccc(CN6CC7(CNC(=O)C7)C6)c(OC)n5)c4Cl)cccc32)cc(OC)c1CNC[C@@H]1CCC(=O)N1 [Example 96, (S)-2-((6-(2-chloro-3-(1-(3,5-dimethoxy-4-((((5-oxopyrrolidin-2-yl)methyl)amino)methyl)phenyl)-1H-indol-4-yl)phenyl)-2-methoxypyridin-3-yl)methyl)-2,6-diazaspiro[3.4]octan-7-one]
- IC50 [1]: 1 to 10 nM
- IC50 (PD-1/PD-L1 interaction): 201 to 2000 nM

Compound: CCOC(=O)[C@@H](CO)NCc1c(OC)cc(-n2ncc3c(-c4cccc(-c5ccc(CNC[C@@H]6CCC(=O)N6)c(OC)n5)c4Cl)cccc32)cc1OC [Example 147, Ethyl (2R)-2-[({4-[4-(2-chloro-3-{6-methoxy-5-[({[(2S)-5-oxopyrrolidin-2-yl]methyl)amino)methyl}pyridin-2-yl}phenyl)-1H-indazol-1-yl]-2,6-dimethoxyphenyl}methyl)amino]-3-hydroxypropanoate]
- IC50 [1]: 1 to 10 nM
- IC50 (PD-1/PD-L1 interaction): 201 to 2000 nM

Compound: COc1cc(-n2ncc3c(-c4cccc(-c5ccc(CN6CC7(CNC(=O)C7)C6)c(OC)n5)c4Cl)cccc32)cc(OC)c1CNCCO [Example 128, 2-((6-(2-chloro-3-(1-(4-(((2-hydroxyethyl)amino)methyl)-3,5-dimethoxyphenyl)-1H-indazol-4-yl)phenyl)-2-methoxypyridin-3-yl)methyl)-2,6-diazaspiro[3.4]octan-7-one]
- IC50 [1]: < 1 nM
- IC50 (PD-1/PD-L1 interaction): < 200 nM

Compound: COc1cc(-n2ncc3c(-c4cccc(-c5nc6cc(CN(C)C78CCC(C(=O)O)(CC7)CC8)cc(C#N)c6o5)c4C)cccc32)cc(OC)c1CN1CC(O)C1 [Example 159, 4-(((7-cyano-2-(3-(1-(4-((3-hydroxyazetidin-1-yl)methyl)-3,5-dimethoxyphenyl)-1H-indazol-4-yl)-2-methylphenyl)benzo[d]oxazol-5-yl)methyl)(methyl)amino)bicyclo[2.2.2]octane-1-carboxylic acid]
- IC50 [1]: < 1 nM
- IC50 (PD-1/PD-L1 interaction): < 200 nM

Compound: COc1cc(-n2ncc3c(-c4cccc(-c5ccc(CNC[C@@H]6CCC(=O)N6)c(OC)n5)c4Cl)cccc32)cc(OC)c1CN[C@H](CO)C(=O)O [Example 123, (4-(4-(2-chloro-3-(6-methoxy-5-(((((S)-5-oxopyrrolidin-2-yl)methyl)amino)methyl)pyridin-2-yl)phenyl)-1H-indazol-1-yl)-2,6-dimethoxybenzyl)-D-serine]
- IC50 [1]: < 1 nM
- IC50 (PD-1/PD-L1 interaction): < 200 nM

Compound: COc1cc(-n2ncc3c(-c4cccc(-c5ccc(CN6CC7(CNC(=O)C7)C6)c(OC)n5)c4Cl)cccc32)cc(OC)c1CN[C@@](C)(CO)C(=O)O [Example 139, (S)-2-((4-(4-(2-chloro-3-(6-methoxy-5-((7-oxo-2,6-diazaspiro[3.4]octan-2-yl)methyl)pyridin-2-yl)phenyl)-1H-indazol-1-yl)-2,6-dimethoxybenzyl)amino)-3-hydroxy-2-methylpropanoic acid]
- IC50 [1]: < 1 nM
- IC50 (PD-1/PD-L1 interaction): < 200 nM

Compound: COc1cc(-n2ncc3c(-c4cccc(-c5ccc(CN6CC(C)(C(=O)NC7CC7)C6)c(OC)n5)c4Cl)cccc32)cc(OC)c1CNC[C@H]1C[C@@H](O)C1 [Example 95, 1-((6-(2-chloro-3-(1-(4-((((cis-3-hydroxycyclobutyl)methyl)amino)methyl)-3,5-dimethoxyphenyl)-1H-indazol-4-yl)phenyl)-2-methoxypyridin-3-yl)methyl)-N-cyclopropyl-3-methylazetidine-3-carboxamide]
- IC50 [1]: 1 to 10 nM
- IC50 (PD-1/PD-L1 interaction): 201 to 2000 nM

Compound: COc1cc(-n2ccc3c(-c4cccc(-c5ccc(CN6CC(C)(O)C6)c(OC)n5)c4Cl)cccc32)cc(OC)c1CN1CC2(CNC(=O)C2)C1 [Example 84, 2-(4-(4-(2-chloro-3-(5-((3-hydroxy-3-methylazetidin-1-yl)methyl)-6-methoxypyridin-2-yl)phenyl)-1H-indol-1-yl)-2,6-dimethoxybenzyl)-2,6-diazaspiro[3.4]octan-7-one]
- IC50 [1]: < 1 nM
- IC50 (PD-1/PD-L1 interaction): 201 to 2000 nM

Compound: COc1cc(-n2ccc3c(-c4cccc(-c5ccc(CNCC6CNC6)c(OC)n5)c4Cl)cccc32)cc(OC)c1CNC[C@@H]1CCC(=O)N1 [Example 33]
- IC50 [1]: 10 to 100 nM
- IC50 (PD-1/PD-L1 interaction): > 2000 nM

Compound: COc1cc(-c2cccc(-c3cccc4c3cnn4-c3cc(OC)c(CN4CC[C@@H](O)C4)c(OC)c3)c2Cl)cc(F)c1CN(C)C12CCC(C(=O)O)(CC1)CC2 [Example 164, (R)-4-(((2′-chloro-3-fluoro-β′-(1-(4-((3-hydroxypyrrolidin-1-yl)methyl)-3,5-dimethoxyphenyl)-1H-indazol-4-yl)-5-methoxy-[1,1′-biphenyl]-4-yl)methyl)(methyl)amino)bicyclo[2.2.2]octane-1-carboxylic acid]
- IC50 [1]: < 1 nM
- IC50 (PD-1/PD-L1 interaction): < 200 nM

Compound: COc1cc(-n2ncc3c(-c4cccc(-c5ccc(CN[C@H]6C[C@@H](O)C6)c(OC)n5)c4Cl)cccc32)ncc1CN[C@H]1C[C@@H](O)C1 [Example 106, cis-3-(((6-(2-chloro-3-(1-(5-(((cis-3-hydroxycyclobutyl)amino)methyl)-4-methoxypyridin-2-yl)-1H-indazol-4-yl)phenyl)-2-methoxypyridin-3-yl)methyl)amino)cyclobutanol]
- IC50 [1]: < 1 nM
- IC50 (PD-1/PD-L1 interaction): 201 to 2000 nM

Compound: COc1cc(-n2ncc3c(-c4cccc(-c5ccc(CN6CC(C)(C(=O)NC7CC7)C6)c(OC)n5)c4Cl)cccc32)cc(OC)c1CNC[C@@H]1CCC(=O)N1 [Example 92, (S)-1-((6-(2-chloro-3-(1-(3,5-dimethoxy-4-((((5-oxopyrrolidin-2-yl)methyl)amino)methyl)phenyl)-1H-indazol-4-yl)phenyl)-2-methoxypyridin-3-yl)methyl)-N-cyclopropyl-3-methylazetidine-3-carboxamide]
- IC50 [1]: < 1 nM
- IC50 (PD-1/PD-L1 interaction): < 200 nM

Compound: CCOC(=O)[C@@H](NCc1c(OC)cc(-n2ncc3c(-c4cccc(-c5ccc(CNC[C@@H]6CCC(=O)N6)c(OC)n5)c4Cl)cccc32)cc1OC)[C@@H](C)O [Example 146, (2S,3R)-ethyl 2-((4-(4-(2-chloro-3-(6-methoxy-5-(((((S)-5-oxopyrrolidin-2-yl)methyl)amino)methyl)pyridin-2-yl)phenyl)-1H-indazol-1-yl)-2,6-dimethoxybenzyl)amino)-3-hydroxybutanoate]
- IC50 [1]: < 1 nM
- IC50 (PD-1/PD-L1 interaction): 201 to 2000 nM

Compound: COc1cc(-n2ccc3c(-c4cccc(-c5ccc(CNC[C@@H]6CCC(=O)N6)c(OC)n5)c4Cl)cccc32)cc(OC)c1CNCC(C)(C)C(N)=O [Example 39]
- IC50 [1]: < 1 nM
- IC50 (PD-1/PD-L1 interaction): 201 to 2000 nM

Compound: COc1cc(-n2ncc3c(-c4cccc(-c5ccc(CN[C@H]6C[C@@H](O)C6)c(OC)n5)c4Cl)cccc32)cc(OC)c1CNCC(C)(C)C(N)=O [Example 109, 3-((4-(4-(2-chloro-3-(5-(((cis-3-hydroxycyclobutyl)amino)methyl)-6-methoxypyridin-2-yl)phenyl)-1H-indazol-1-yl)-2,6-dimethoxybenzyl)amino)-2,2-dimethylpropanamide]
- IC50 [1]: 1 to 10 nM
- IC50 (PD-1/PD-L1 interaction): < 200 nM

Compound: COc1cc(-n2ncc3c(-c4cccc(-c5ccc(CN[C@H]6C[C@@H](O)C6)c(OC)n5)c4Cl)cccc32)ncc1CN[C@@H](CO)C(N)=O [Example 118, (S)-2-(((6-(4-(2-chloro-3-(5-(((cis-3-hydroxycyclobutyl)amino)methyl)-6-methoxypyridin-2-yl)phenyl)-1H-indazol-1-yl)-4-methoxypyridin-3-yl)methyl)amino)-3-hydroxypropanamide]
- IC50 [1]: < 1 nM
- IC50 (PD-1/PD-L1 interaction): > 2000 nM

Compound: COc1cc(-n2ncc3c(-c4cccc(-c5ccc(C6=NCCN6)c(OC)n5)c4Cl)cccc32)cc(OC)c1CN1CC2(CNC(=O)C2)C1 [Example 76, 2-(4-(4-(2-chloro-3-(5-(4,5-dihydro-1H-imidazol-2-yl)-6-methoxypyridin-2-yl)phenyl)-1H-indazol-1-yl)-2,6-dimethoxybenzyl)-2,6-diazaspiro[3.4]octan-7-one]
- IC50 [1]: < 1 nM
- IC50 (PD-1/PD-L1 interaction): < 200 nM
